Measurements: US20260263628A1, “AN ORAL LIQUID COMPOSITION OF VINORELBINE” (INSTITUT GUSTAVE ROUSSY, priority 2022, published 2026)
Structures can show the parent of a compound that is named as a salt. Where two headings read alike, the source gives them in different places.

What was measured:
[1] = Isothermal titration calorimetry of CD/vinorelbine systems (titration and competition with SGM); type: physicochemical; settings: 25° C.; for Binding constant / ΔbH° (inclusion enthalpy): vinorelbine-CD, phosphate buffer pH 7.0
Experimental: In the first instance, 12 CDs and CD derivatives supplied by Captisol® (Kansas, USA), SIGMA® (St Louis, Missouri, USA) and MSD® (New Jersey, USA) and authorized by the FDA or the European Medicines Agency (EMA) were tested (U.S Food and Drug Administration C for DE and. Food Additive Status List. FDA 2022. U.S Food and Drug Administration C for DE and. Select Committee on GRAS Substances 2022. Committee for Human Medicinal Products. Cyclodextrins used as excipients. EMA 2017:16). These were alpha-CD, beta-[…] (methyl-beta-CD, low substitution degree), RAMEB (methyl-beta-CD, higher substitution degree), DIMEB (di-O-methyl-beta-[…] (tri-O-methyl-beta-CD), HP-beta-CD (Hydroxypropyl-beta-CD), SBE-beta-CD (Sulfobutylether-beta-CD), gamma-CD, HP-gamma-CD (Hydroxypropyl-gamma-CD), SBE-gamma-CD (Sulfobutylether-gamma-CD), and sugammadex (SGM). Vinorelbine ditartrate and 50 mM CD solutions were prepared in phosphate buffer pH 7.0. […] To confirm the validity of the chosen stoichiometric model and to increase the accuracy of the thermodynamic parameters, each system was also subjected to a competition experiment with SGM: a solution of 0.5 mM vinorelbine and 10 mM CD titrated against a mixture containing 5 mM SGM and 10 mM CD. […] For all CDs the measurements were performed at 25° C., and the stirring speed was set at 1000 rpm. The resulting heat flux was recorded as a function of time. Prior to data analysis, blank titrations were performed under the same experimental conditions by injecting individual species into buffer, and/or buffer into species and buffer into buffer to determine the heat of dilution. […] The peak area after each injection was obtained by integration of the resulting signal and was expressed as the heat effect per injection. The binding constant (KB), inclusion enthalpy (ΔbH°), and heat capacity (ΔbCp®) were determined using a program developed by Bertaut and Landy involving a global analysis of all binding isotherms obtained for a given system (Bertaut et al. Beilstein J Org Chem 2014:12). A set of thermodynamic parameters was employed for simultaneous nonlinear regression analyses of titration and competition experiments.

[2] = Simulated complexation of vinorelbine in CD using the constants of Table 2; settings: for CD concentration needed to obtain 95% of complexation: vinorelbine solution at 20 mg/mL (25.7 mmol/L)
Experimental: To obtain 95% of complexation for a solution at 20 mg/mL (ie 25.7 mmol/L), about 62 mmol/L of SGM or about 71 mmol/L of SBE-beta-CD is needed.
Using the constant values of Table 2, we simulated the complexation of vinorelbine in CD depending on the CD concentration and the final concentration of the vinorelbine solution. To achieve a concentration of 10 mg/mL, approximately 49 mmol/L sugammadex or 58 mmol/L SBE-beta-CD is required to reach 95% of complexation. For 18 mg/mL, approximately 59 mmol/L sugammadex or 68 mmol/L SBE-beta-CD is required to obtain the same complexation rate. […] This indicates a real and strong complexation between vinorelbine and cyclodextrin.

[3] = Haze / precipitate on mixing CD with vinorelbine (2D NMR sample preparation); type: physicochemical
Experimental: In order to confirm the type of existing interaction (inclusion complex, type of binding) between CD and vinorelbine, a two-dimensional proton NMR was performed on PA (Spitzer et al, J Heterocycl Chem 1995; 32:1255-9), CDs (Schneider et al, Chem Rev 1998; 98:1755-86) and complexes (Vogt et al, Mol Pharm 2012; 9:3357-74; Péan et al, J Chim Phys Phys-Chim Biol 1999; 96:1486-93). Vinorelbine 10 mM stock solution (SS) was prepared by dissolving 21.58 mg of vinorelbine tartrate in 2 mL of deuterated water. CD stock solutions were prepared by dissolving: 21.78 mg SGM in 1 mL heavy water (SS2), 9.73 mg alpha-CD in ImL heavy water (SS3), 21.63 mg SBE-beta-CD in 1 mL heavy water (SS4), and 20.72 mg SBE-gamma-CD in 1 mL heavy water (SS5). These stock solutions were used for the preparation of 10 samples containing vinorelbine, CDs or a mixture of CDs and vinorelbine in deuterated water as shown in Table 1.
A range of vinorelbine-SGM mixtures was performed from 1.5 mmol/L to 5 mmol/L. The haze appears from the mixture of concentration 2.5 mmol/L (sample 10).

[4] = cited from earlier work
EpiOral = type: cell-based; settings: vinorelbine 20 mg/mL
Experimental: EpiOral were also used for immunohistology analysis as follow: 3 untreated tissues (negative control, NC), 3 tissues in contact with SBE-β-CD, 3 tissues in contact with vinorelbine at 20 mg/mL concentration, 3 tissues in contact with vinorelbine complexed with SBE-β-CD and 3 tissues in contact with 1% Triton X-100 (positive control, PC). Tissues samples were fixed with 4% PFA and embedded in paraffin. Sections (3 μm thick) were deparaffinized and were stained with Hematoxylin and Eosin (H&E). For immunofluorescence, slides were incubated overnight at 4° C. with primary antibodies diluted in 0.02% Triton X-100-PBS. Primary antibodies were as follows: rabbit anti-Ki67 (ab16667; 1/75; Abcam), mouse anti-E-Cadherin (ab1416; 1/100; Abcam), rabbit anti-Claudin 4 (ab210796; 1/200; Abcam), mouse anti-Cytokeratin 10 (ab9026; 1/100; Abcam), rabbit anti-Cytokeratin 13 (ab97327; 1/50; Abcam) and mouse anti-Cytokeratin 14 (ab7800; 1/50; Abcam). For immunofluorescence detection, secondary antibody Alexa Fluor™ plus 488 goat anti-mouse (1:200; Invitrogen A11029), Alexa Fluor™ plus 488 donkey anti-rabbit (1:200; Invitrogen A21206), Alexa Fluor™ plus 594 goat anti-mouse (1:200; Invitrogen A32742) and Alexa Fluor™ plus 594 goat anti-rabbit (1:200; Invitrogen A32740) were used. […]

Heat variation / interaction with vinorelbine in titration experiments [1]	Binding constant [1] [L/mol]	ΔbH° (inclusion enthalpy) [1]	CD concentration required to reach 95% of complexation ([2]; vinorelbine 10 mg/mL)	CD concentration required to reach 95% of complexation ([2]; vinorelbine 18 mg/mL)	CD concentration needed to obtain 95% of complexation [2]	Haze / precipitate when mixed with vinorelbine [3]	Concentration of vinorelbine-CD mixture from which haze appears ([3]; range 1.5 to 5 mmol/L, deuterated water) [µM]	Compound	Solubility ([4]; aprotic solvents)	Solubility ([4]; methanol)	Solubility ([4]; water)	Cytotoxicity / TUNEL marking (EpiOral)	E-cadherin marking (tight junctions) (EpiOral; Triton X-100 1%)
small heat variation	106	-1.185 kcal/mol	–	–	–	–	–	OC[C@H]1O[C@@H]2O[C@H]3[C@H](O)[C@@H](O)[C@@H](O[C@H]4[C@H](O)[C@@H](O)[C@@H](O[C@H]5[C@H](O)[C@@H](O)[C@@H](O[C@H]6[C@H](O)[C@@H](O)[C@@H](O[C@H]7[C@H](O)[C@@H](O)[C@@H](O[C@H]1[C@H](O)[C@H]2O)O[C@@H]7CO)O[C@@H]6CO)O[C@@H]5CO)O[C@@H]4CO)O[C@@H]3CO [Alpha-CD, alpha-cyclodextrin]	–	–	–	–	–
an interaction is observed	511	-3.177 kcal/mol	approximately 49 mmol/L	approximately 59 mmol/L	about 62 mmol/L	a haze appeared	≥ 2500	O=C(O)CCSC[C@H]1O[C@@H]2O[C@H]3[C@H](O)[C@@H](O)[C@@H](O[C@H]4[C@H](O)[C@@H](O)[C@@H](O[C@H]5[C@H](O)[C@@H](O)[C@@H](O[C@H]6[C@H](O)[C@@H](O)[C@@H](O[C@H]7[C@H](O)[C@@H](O)[C@@H](O[C@H]8[C@H](O)[C@@H](O)[C@@H](O[C@H]9[C@H](O)[C@@H](O)[C@@H](O[C@H]1[C@H](O)[C@H]2O)O[C@@H]9CSCCC(=O)O)O[C@@H]8CSCCC(=O)O)O[C@@H]7CSCCC(=O)O)O[C@@H]6CSCCC(=O)O)O[C@@H]5CSCCC(=O)O)O[C@@H]4CSCCC(=O)O)O[C@@H]3CSCCC(=O)O [SGM, sugammadex]	–	–	–	–	–
–	–	–	–	–	–	–	–	CCC1=C[C@@H]2CN(C1)Cc1c([nH]c3ccccc13)[C@@](C(=O)OC)(c1cc3c(cc1OC)N(C)[C@H]1[C@@](O)(C(=O)OC)[C@H](OC(C)=O)[C@]4(CC)C=CCN5CC[C@]31[C@@H]54)C2 [vinorelbine, vinorelbine ditartrate salt hydrate]	insoluble	partially soluble	totally soluble	causes cell mortality and destroys tight tissue junctions	loss of E-cadherin marking
an interaction is observed	121	+514 cal/mol	–	–	–	–	–	Sulfobutylether-gamma-CD [SBE-gamma-CD]	–	–	–	–	–
an interaction is observed	412	+2305 cal/mol	~58 mmol/L	~68 mmol/L	about 71 mmol/L	does not produce any precipitate	–	sulfobutylether-beta-cyclodextrin [SBE-beta-CD]	–	–	–	–	–
